# Measurements reported in patent US20240009121A1, “PHARMACEUTICAL COMPOSITION CONTAINING NEUROACTIVE STEROID AND USE THEREOF” (Brii Biosciences, Inc., priority 2020, published 2024).
# Like-named read-outs stand apart in the source and are kept apart here.
# Tests used:
# [1] = Single IV infusion PK of brexanolone in rats; assay type: in vivo; settings: male Sprague Dawley rat; single IV infusion 1.0 mg/kg over 30 minutes; mean
# Procedure: (§1) Following a single IV infusion in rats (1.0 mg/kg) and dogs (2.0 mg/kg) over 30 minutes, the PK parameters in Table 2 were obtained.
# (§2) In the rat and dog PK studies including brexanolone IV infusion and IM administrations, brexanolone was quantified in rat and dog plasma using a sensitive and specific analytical procedure. Analytes were separated by liquid chromatography (LC) and brexanolone was detected by positive mode electrospray tandem mass spectrometry (MS/MS). The lower limit of quantitation (LLOQ) was 1.0 to 3.0 ng/mL. In the GLP study, LLOQ was 1.0 ng/mL in the rat.
# (§3) Intravenous dosing of brexanolone was performed through a 30-min infusion via the jugular vein cannula (JVC) or a temporary percutaneous catheter placed into a lateral tail vein in rats, and via the cephalic vein in dogs. Different suspension formulations were also dosed intramuscularly into the rats and dogs in accordance with test facility standard operating procedures. At the designated time points, blood was collected via direct venipuncture of a cephalic or jugular vein in rats and via the cephalic or saphenous vein in dog. Blood was transferred into collection tubes containing K2EDTA anticoagulant and stored on ice until processed. Blood was processed for plasma by centrifugation. Plasma was then transferred into a 96-well container and stored in a freezer maintained at approximately −70° C. The quantitative analyses of the resulted plasma samples were conducted using a qualified LC-MS/MS method.
# [2] = Single IV infusion PK of brexanolone in dogs; assay type: in vivo; settings: male Beagle dog; single IV infusion 2.0 mg/kg over 30 minutes; mean
# Procedure: as §1, §2, §3
# rat = settings: single IV slow bolus, cited from earlier work
# dog [3] = settings: single IV slow bolus, cited from earlier work
# rats = settings: rat, cited from earlier work
# [4] = rat, 14-day continuous IV infusion, 18 mg/kg/day, cited from earlier work
# dog [5] = settings: cited from earlier work
# [6] = dog, 14-day continuous IV infusion, 36 mg/kg/day, cited from earlier work
# Sprague Dawley rats = settings: rat, cited from earlier work
# [7] = 28-day continuous IV infusion, cited from earlier work
# Beagle dogs = settings: dog, cited from earlier work
# [8] = 28-day continuous IV infusion, cited from earlier work; remark: listed apart in the source
# [9] = brexanolone IV at the MRHD of 90 μg/kg/h; cited from earlier work
# [10] = 5-day continuous IV infusion study
# [11] = 28-day continuous IV infusion, 10, 30, 60 mg/kg/day
# [12] = 28-day continuous IV infusion, 12, 36, 72 mg/kg/day
substance,measurement,setting,value
"1-(3R,5S,8R,9S,10S,13S,14S,17S)-3-hydroxy-10,13-dimethylhexadecahydro-1H-cyclopenta[a]phenanthren-17-yl) ethan-1-one [brexanolone]",AUC0-inf,[1],177 ng·h/mL
same,AUC0-t,[1],175 ng·h/mL
same,MRTinf,[1],21.5 min
same,AUC0-inf,[2],289 ng·h/mL
same,AUC0-t,[2],283 ng·h/mL
same,CL,[2],~120 mL/min/kg
same,MRTinf,[2],26.5 min
same,T1/2,[2],~101 min
same,Vss,[2],~2.99 L/kg
same,single bolus dose at which rapid anesthesia (within 1 minute) was observed,rat; doses ≤50 mg/kg,≥ 10 mg/kg
same,maximum tolerated dose (MTD) for slow bolus administration,rat; shallow respiration and death of one male at 50 mg/kg,30 mg/kg
same,single bolus dose at which rapid anesthesia (within 1 minute) was observed,dog [3]; doses ≤30 mg/kg,≥ 7.5 mg/kg
same,MTD for slow bolus administration,dog [3]; irregular breathing in 1 of 4 dogs at 30 mg/kg,20 mg/kg
same,MTD,rats; [10],120 mg/kg/day
same,NOAEL for poor clinical condition resulting in premature euthanasia,rats; 14-day continuous IV infusion study,18 mg/kg/day
same,AUC0 24 h at NOAEL,[4]; females,1790 ng·h/mL
same,Cmax at NOAEL,[4]; females,111 ng/mL
same,AUC0 24 h at NOAEL,[4]; males,2910 ng·h/mL
same,Cmax at NOAEL,[4]; males,196 ng/mL
same,MTD,dog [5]; [10],60 mg/kg/day
same,NOAEL,"dog [5]; 14-day continuous IV infusion study, convulsion in one female at 72 mg/kg/day",36 mg/kg/day
same,AUC0-24h at NOAEL,[6]; females,3840 ng·h/mL
same,Cmax at NOAEL,[6]; females,210 ng/mL
same,AUC0-24h at NOAEL,[6]; males,3560 ng·h/mL
same,Cmax at NOAEL,[6]; males,201 ng/mL
same,body weight gain compared to vehicle controls,"Sprague Dawley rats; females, 30 mg/kg/day, Day 7 to 28",138%
same,body weight gain compared to vehicle controls,"Sprague Dawley rats; females, 30 mg/kg/day, Day −1 to 7",160%
same,body weight gain compared to vehicle controls,"Sprague Dawley rats; females, 60 mg/kg/day, Day 7 to 28",123%
same,body weight gain compared to vehicle controls,"Sprague Dawley rats; females, 60 mg/kg/day, Day −1 to 7",193%
same,body weight gain compared to vehicle controls,"Sprague Dawley rats; males, 10 mg/kg/day, first 7 days",126%
same,body weight gain compared to vehicle controls,"Sprague Dawley rats; males, 30 mg/kg/day, first 7 days",126%
same,body weight gain compared to vehicle controls,"Sprague Dawley rats; males, 60 mg/kg/day, Day 7 to 28",71%
same,body weight gain compared to vehicle controls,"Sprague Dawley rats; males, 60 mg/kg/day, first 7 days",132%
same,exposure at NOAEL as multiple of the human exposure at the MRHD,Sprague Dawley rats; 60 mg/kg/day vs human 90 μg/kg/h,5 times
same,mortality,Sprague Dawley rats; [11],no test article or vehicle-related mortalities
same,test article related clinical observations,Sprague Dawley rats; [11],No test article related clinical observations were noted
same,NOAEL,Sprague Dawley rats; 28-day continuous IV infusion,60 mg/kg/day
same,AUC0-24 h (= AUC0-672 h/28),"[7]; rat F, 10 mg/kg/day",1410 ng·h/mL
same,Cmax,"[7]; rat F, 10 mg/kg/day",63.1 ng/mL
same,Css (= AUC0-672 h/672 h),"[7]; rat F, 10 mg/kg/day",58.8 ng/mL
same,AUC0-24 h (= AUC0-672 h/28),"[7]; rat F, 30 mg/kg/day",4320 ng·h/mL
same,Cmax,"[7]; rat F, 30 mg/kg/day",219 ng/mL
same,Css (= AUC0-672 h/672 h),"[7]; rat F, 30 mg/kg/day",180 ng/mL
same,AUC0-24 h (= AUC0-672 h/28),"[7]; rat F, 60 mg/kg/day",8110 ng·h/mL
same,Cmax,"[7]; rat F, 60 mg/kg/day",441 ng/mL
same,Css (= AUC0-672 h/672 h),"[7]; rat F, 60 mg/kg/day",338 ng/mL
same,AUC0-24 h (= AUC0-672 h/28),"[7]; rat M, 10 mg/kg/day",1790 ng·h/mL
same,Cmax,"[7]; rat M, 10 mg/kg/day",93.8 ng/mL
same,Css (= AUC0-672 h/672 h),"[7]; rat M, 10 mg/kg/day",74.4 ng/mL
same,AUC0-24 h (= AUC0-672 h/28),"[7]; rat M, 30 mg/kg/day",4890 ng·h/mL
same,Cmax,"[7]; rat M, 30 mg/kg/day",233 ng/mL
same,Css (= AUC0-672 h/672 h),"[7]; rat M, 30 mg/kg/day",204 ng/mL
same,AUC0-24 h (= AUC0-672 h/28),"[7]; rat M, 60 mg/kg/day",9960 ng·h/mL
same,Cmax,"[7]; rat M, 60 mg/kg/day",464 ng/mL
same,Css (= AUC0-672 h/672 h),"[7]; rat M, 60 mg/kg/day",415 ng/mL
same,exposure at NOAEL relative to the human exposure at the MRHD,Beagle dogs; 12 mg/kg/day vs human 90 μg/kg/h,equivalent to the human exposure
same,mortality,Beagle dogs; [12],no test article- or vehicle-related mortalities
same,test article-related clinical signs,Beagle dogs; [12],limited to one male dosed with 36 mg/kg which had a convulsion occurring 4 days after completing the 28-day infusion
same,NOAEL,"Beagle dogs; 28-day continuous IV infusion, based on convulsion in one 36 mg/kg dog and SBECD-related renal tubular vacuolation at ≥36 mg/kg",12 mg/kg/day
same,AUC0-24 h (= AUC0-672 h/28),"[8]; dog F, 12 mg/kg/day",1820 ng·h/mL
same,Cmax,"[8]; dog F, 12 mg/kg/day",97.3 ng/mL
same,Css (= AUC0-672 h/672 h),"[8]; dog F, 12 mg/kg/day",75.9 ng/mL
same,AUC0-24 h (= AUC0-672 h/28),"[8]; dog F, 36 mg/kg/day",6960 ng·h/mL
same,Cmax,"[8]; dog F, 36 mg/kg/day",338 ng/mL
same,Css (= AUC0-672 h/672 h),"[8]; dog F, 36 mg/kg/day",290 ng/mL
same,AUC0-24 h (= AUC0-672 h/28),"[8]; dog F, 72 mg/kg/day",11300 ng·h/mL
same,Cmax,"[8]; dog F, 72 mg/kg/day",571 ng/mL
same,Css (= AUC0-672 h/672 h),"[8]; dog F, 72 mg/kg/day",471 ng/mL
same,AUC0-24 h (= AUC0-672 h/28),"[8]; dog M, 12 mg/kg/day",1680 ng·h/mL
same,Cmax,"[8]; dog M, 12 mg/kg/day",89.3 ng/mL
same,Css (= AUC0-672 h/672 h),"[8]; dog M, 12 mg/kg/day",69.9 ng/mL
same,AUC0-24 h (= AUC0-672 h/28),"[8]; dog M, 36 mg/kg/day",5760 ng·h/mL
same,Cmax,"[8]; dog M, 36 mg/kg/day",310 ng/mL
same,Css (= AUC0-672 h/672 h),"[8]; dog M, 36 mg/kg/day",240 ng/mL
same,AUC0-24 h (= AUC0-672 h/28),"[8]; dog M, 72 mg/kg/day",12900 ng·h/mL
same,Cmax,"[8]; dog M, 72 mg/kg/day",708 ng/mL
same,Css (= AUC0-672 h/672 h),"[8]; dog M, 72 mg/kg/day",538 ng/mL
same,human exposure AUC0-24h,[9],1800 ng·h/mL
same,human exposure Css,[9],74.3 ng/mL
